# Test results as given in patent US12274830B2, “Nitric oxide inhalation therapy for infants with bronchiolitis” (BEYOND AIR LTD, priority 2015, dated 2025).
# Entries after “also recorded” stand apart in the source; their conditions may differ.
# Key:
# Klebsiella sp. #3 = settings: 200 ppm gNO; cited from earlier work
# S. aureus (ATCC 25923) = settings: 200 ppm gNO; cited from earlier work
# Group B Streptococci = settings: 200 ppm gNO; cited from earlier work
# Klebsiella sp.#2 = settings: 200 ppm gNO; cited from earlier work
# Acinetobacter sp. = settings: 200 ppm gNO; cited from earlier work
# [1] = test system: P. aeruginosa (ATCC 27853); settings: 200 ppm gNO; cited from earlier work
# Klebsiella sp. #1 = settings: 200 ppm gNO; cited from earlier work
# [2] = previous in vitro and animal studies; cited from earlier work
# [3] = test system: infants with acute bronchiolitis; assay: Safety and tolerability of intermittent inhalations of 160 ppm NO in hospitalized infants with acute bronchiolitis (randomized double blind study); assay type: in vivo, human
# Protocol: The study was conducted at the Soroka University Medical Center in southern Israel, and was approved by the Institutional and National Human Ethics Committee. A detailed study overview is attached as an online supplement. This study is registered with clinical trial number NCT01768884.
# The study was a randomized, prospective, single center, double blind study of 2-11 month old hospitalized infants with acute bronchiolitis (FIG. 1).
# Subjects were screened within 4 hours of admission and randomized (1:1) to receive intermittent inhalations of 160 ppm NO along with standard treatment (NO group) or intermittent inhalations of 02/air mixture and standard treatment (control group), for a maximum of 25 inhalations.
# Standard Supportive Treatment: This treatment included humidified oxygen, nasal suction when needed and hydration (oral, intra-venous or nasogastric tube fluids). The use of other concomitant medications was allowed, according to the ward's common practice.
# Nitric Oxide Treatment: Subjects spontaneously inspired 160 ppm NO in fixed flow mode via a facemask. Nitric Oxide (Maxima, Israel) of 800 ppm (0.08%) NO balanced with 99.999% purity Nitrogen (N2), was titrated into the O2/air inspiratory delivery line. Inhaled NO, NO2 and O2 concentrations in the patient breathing circuit were continuously monitored using dedicated gas analyzers. (AeroNox, International medical, USA).
# Primary Outcome: Safety measures, included % MetHb and NO2 production associated with NO treatment, bleeding episodes and any other adverse event (AE). Study threshold for NO2 and MetHb was set at 5 ppm and 5%, respectively.
# The primary outcome was safety and tolerability of intermittent inhalations of 160 ppm NO, given to infants 2 to 11 months with acute bronchiolitis. Safety measures included % MetHb associated with NO treatment (safety threshold was determined as >5% for MetHb and >5 ppm for NO2), as well as any other AEs. Tolerability measures included the proportions of subjects who prematurely discontinued the study for any reason, and the proportion of subjects who prematurely discontinued the treatment due to severe SAEs.
# The research staff was divided into “blinded” and “unblinded” groups. The unblinded staff administered the inhalations to the infants and monitored % MetHb, % SpO2 (co-oximeter, RAD57/RAD 87, Masimo Corporation, USA), fractional inhaled O2 (FiO2), NO, NO2 levels. The blinded group included the primary investigator and all other staff directly involved with patient care. Safety threshold for NO2 and MetHb was set at 5 ppm and 5%, respectively. It should be emphasized that both treatments, NO/O2 (NO treatment) as well as O2/air mixture (control) were given via the same device, therefore, parents were also blinded to the treatment arm.
# Each patient was given 5 inhalations a day of NO (treatment group) or oxygen (control group), along with the standard supportive treatment, for a maximum of 25 inhalations (based on phase I safety data). Each participant was examined and evaluated using the severity symptom score by a blinded pediatricians every […] (9 am and 3 pm). When the room-air SpO2 reached 92%, and the score was ≤5, and the patient was assessed as “ready for discharge”, the treatment was discontinued.
# The data were managed and analyzed by independent statisticians group using the SAS version 9.1 (SAS Institute, Cary, North Carolina). […]
# [4] = test system: bacteria at 10E5 CFU/ml isolated from patients; settings: 200 ppm gNO, cited from earlier work
# MRSA = settings: 200 ppm gNO; cited from earlier work
# Enterobacter sp. = settings: 200 ppm gNO; cited from earlier work
# S. maltophilia = settings: 200 ppm gNO; cited from earlier work
# Mycobacterium smegmatis = settings: 200 ppm gNO; cited from earlier work
# E. coli = settings: 200 ppm gNO; cited from earlier work
# [5] = NO Group (N = 21), Methemoglobin >5%
# [6] = NO Group (N = 21), NO2 concentration >5 ppm
# [7] = NO Group (N = 21), Oxyhemoglobin <89%
# [8] = average of the 13 bacteria above the line
smiles,measurement,setting,value
"[N]=O [NO, nitric oxide]",+2.5 Log10,Klebsiella sp. #3,5.1 hours
same,LD100,Klebsiella sp. #3,6 h
same,Latent Period,Klebsiella sp. #3,3 h
same,+2.5 Log10,S. aureus (ATCC 25923),3.3 hours
same,LD100,S. aureus (ATCC 25923),4 h
same,Latent Period,S. aureus (ATCC 25923),3 h
same,+2.5 Log10,Group B Streptococci,1.5 hours
same,LD100,Group B Streptococci,2 h
same,Latent Period,Group B Streptococci,1 h
same,+2.5 Log10,Klebsiella sp.#2,4.1 hours
same,LD100,Klebsiella sp.#2,5 h
same,Latent Period,Klebsiella sp.#2,2 h
same,+2.5 Log10,Acinetobacter sp.,5 hours
same,LD100,Acinetobacter sp.,6 h
same,Latent Period,Acinetobacter sp.,4 h
same,+2.5 Log10,[1],2.1 hours
same,LD100,[1],3 h
same,Latent Period,[1],1 h
same,+2.5 Log10,Klebsiella sp. #1,3.5 hours
same,LD100,Klebsiella sp. #1,6 h
same,Latent Period,Klebsiella sp. #1,3 h
same,NO exposure needed before an anti-microbial effect was seen,[2],at least 2.5 hours
same,Bleeding episodes or deaths during the study,[3]; 160 ppm NO intermittent inhalation,no bleeding episodes or deaths; also recorded: no bleeding episodes
same,NO2 elevations and clinical evidence of toxicity,[3]; 30 minutes of inhaled 160 ppm NO five time a day,neither associated with significant elevations in NO2 nor clinical evidence of toxicity; also recorded: no events of significant NO2 elevations
same,Safety and tolerability versus control (standard supportive treatment),"[3]; ITT, PP",no statistically significant safety and tolerability differences; also recorded: comparable to those in the standard-supportive treatment
same,"Any AE, events (E)",[3]; NO Group (N = 21),22 E
same,"Any serious AE, events (E)",[3]; NO Group (N = 21),4 E
same,"Any serious AE, subjects n (%)",[3]; NO Group (N = 21),4 (19.0%) n (%)
same,"Any serious treatment-related AE, events (E)",[3]; NO Group (N = 21),0 E
same,"Any severe AE, events (E)",[3]; NO Group (N = 21),1 E
same,"Any severe AE, subjects n (%)",[3]; NO Group (N = 21),1 (4.8%) n (%)
same,"Any treatment-related AE, events",[3]; NO Group (N = 21),6 E
same,"Death, events (E)",[3]; NO Group (N = 21),0 E
same,"Death, subjects n (%)",[3]; NO Group (N = 21),0 (0.0%) n (%)
same,"Treatment withdrawal due to AE, events (E)",[3]; NO Group (N = 21),1 E
same,"Treatment withdrawal due to AE, subjects n (%)",[3]; NO Group (N = 21),1 (4.8%) n (%)
same,"Treatment-related AE: Blood and Lymphatic System Disorders, Events",[3]; NO Group (N = 21),5 Events
same,"Treatment-related AE: Investigations, Events",[3]; NO Group (N = 21),1 Events
same,"Treatment-related AE: Blood and Lymphatic System Disorders, subjects n (%)","[3]; NO Group (N = 21), MedDRA SOC",4 (19.0%) n (%)
same,"Treatment-related AE: Investigations, subjects n (%)","[3]; NO Group (N = 21), MedDRA SOC",1 (4.8%) n (%)
same,"Treatment-related AE: Methaemoglobinaemia, Events",[3]; [5],5 Events
same,"Treatment-related AE: Methaemoglobinaemia, subjects n (%)",[3]; [5],4 (19.0%) n (%)
same,"Treatment-related AE: NO2 increase, Events",[3]; [6],1 Events
same,"Treatment-related AE: NO2 increase, subjects n (%)",[3]; [6],1 (4.8%) n (%)
same,"Treatment-related AE: Oxyemoglobin decreased, Events",[3]; [7],1 Events
same,"Treatment-related AE: Oxyemoglobin decreased, subjects n (%)",[3]; [7],1 (4.8%) n (%)
same,"Any AE, subjects n (%)","[3]; NO Group (N = 21), intermittent 160 ppm NO + standard treatment",10 (47.6%) n (%)
same,"Any treatment-related AE, subjects n (%)","[3]; NO Group (N = 21), possibly or probably related to study treatment",5 (23.8%) n (%)
same,Subjects in whom MetHb values >5% were observed more than once,[3]; NO group,3 subjects
same,"Subjects with MetHb measurement >5% during the study treatment period, n (%)",[3]; NO group,6 (28.5%) n (%)
same,MetHb peak value at end of inhalation (mean),"[3]; NO group, each NO inhalation",3.3±0.9%
same,Maximum MetHb value,"[3]; NO group, in two subjects",5.6%
same,"Subjects who discontinued the study/study treatment, n (%)","[3]; NO group, tolerability",2 (9.5%) n (%)
same,SpMet level of infants undergoing the method,[3]; general statement referring to the Examples,≤ 1%
same,Cumulative effect / accumulation of MetHb over the treatment period,[3]; pre- vs end of inhalation MetHb levels,no cumulative effect; also recorded: no accumulation of MetHb
same,Reduction in CFU/ml for each gNO-exposed organism,[4]; 10E5 CFU/ml,4-6 Log10 units
same,"+2.5 Log10, Average",[4]; [8],3.82 hours
same,"LD100, Average",[4]; [8],4.77 h
same,"Latent Period, Average",[4]; [8],2.77 h
same,+2.5 Log10,MRSA,4.2 hours
same,LD100,MRSA,5 h
same,Latent Period,MRSA,3 h
same,+2.5 Log10,Enterobacter sp.,5.3 hours
same,LD100,Enterobacter sp.,6 h
same,Latent Period,Enterobacter sp.,4 h
same,+2.5 Log10,S. maltophilia,2.8 hours
same,LD100,S. maltophilia,4 h
same,Latent Period,S. maltophilia,2 h
same,+2.5 Log10,Mycobacterium smegmatis,9.2 hours
same,LD100,Mycobacterium smegmatis,10 h
same,Latent Period,Mycobacterium smegmatis,7 h
same,+2.5 Log10,E. coli,4.2 hours
same,LD100,E. coli,5 h
same,Latent Period,E. coli,3 h
